# In patent US20150307519A1, “SMALL MOLECULES FOR RESTORING FUNCTION TO P53 CANCER MUTANTS” (THE REGENTS OF THE UNIVERSITY OF CALIFORNIA, priority 2014, published 2015):
# Columns and labels:
# [1] = tested on: Saos-2 cells expressing p53^G245S; assay: Cell count / viability of Saos-2 cells with doxycyclin-inducible p53 G245S; type: cell-based; settings: FIGS. 5A-5C; for p53 G245S-dependent cancer cell cytotoxicity: 27 hours
# Source text: ACS chemical biology, doi:10.1021/cb3005929 (2013).
# [2] = molecular target: T1, G245S DBD (Homo sapiens, UniProt P04637, G245S); assay: DSF thermal stabilization of G245S DBD; type: binding; settings: DSF assay
# T1 construct: wild-type p53 protein DBD protein (residues 94-312 of the full length)
# Procedure: (§1) To determine whether this stabilization was specific for copper, NSC319725 was also tested after addition of Fe(II)Cl2 and ZnCl2. […] NSC635448, […] were also tested for stabilization of G245S DBD and WT DBD in the DSF assay, yielding analogous results.
# (§2) An equivalent volume of DMSO was used as a control. […] Sypro Orange stain (Bio-Rad, Hercules, Calif.) at 5,000× stock concentration was diluted to 5× concentration in 20 mM HEPES at pH 7.4 and added to each well of a 96-well plate. All SLS compounds were independently measured for fluorescence background to eliminate false positive results. […] All DSF assays were performed with a Touch RT-PCR system CFX96 (Bio-Rad) with the starting temperature of 4° C. by increasing the temperature of the plate 1.0° C. per min to 94° C. Fluorescence measurements were taken once every minute during all experiments. Tm values for each well, mean Tm values, and 95% confidence intervals were calculated with the program Prism 5 (GraphPad Software, La Jolla, Calif.) by fitting the raw fluorescence data to a Boltzmann sigmoidal curve.
# [3] = molecular target: T2, WT DBD (wild-type p53 DBD protein) (Homo sapiens, UniProt P04637); assay: DSF thermal stabilization of WT DBD; type: binding; settings: DSF assay
# T2 construct: wild-type p53 protein DBD protein (residues 94-312 of the full length); made in house; host or cells: Escherichia coli Rosetta 2 (DE3), vector pSE420
# Procedure: as §1, §2
SMILES,reactivation of p53^G245S in cells [1],effect on Tm of G245S DBD (qualitative) [2],effect on Tm of WT DBD (qualitative) [3],p53 G245S-dependent cancer cell cytotoxicity [1]
Cn1ncc2c(Nc3ccc(Br)cc3)nc(Nc3ccc(Br)cc3)nc21 [NSC11667],marked efficacy,–,–,–
NS(=O)(=O)c1nc2nc[nH]c(=O)c2[nH]1 [NSC635448],marked efficacy,increased the Tm,increased the Tm,marked
"C/C(=N\NC(=S)N(C)C)c1ccccn1 [NSC319725, reference compound]",–,no effect or a slight destabilization,no effect or a slight destabilization,marked
